Test results: US10973849B2, “Rhenium complexes and methods of use for treating cancer” (CORNELL UNIVERSITY, priority 2016, dated 2021)
Where two headings read alike, the source gives them in different places.

How the values were obtained:
[1] = tested on: wild-type (KB) cancer cells; test: Cytotoxicity in wild-type KB cancer cells; type: cell-based
Method: (§1) The Re complex containing the 2,9-dimethyl phen ligand was also tested in wild-type (KB) and cisplatin-resistant (KBCP20) cancer cells.

[2] = tested on: cisplatin-resistant (KBCP20) cancer cells; test: Cytotoxicity in cisplatin-resistant KBCP20 cancer cells; type: cell-based; settings: for IC50: cisplatin-resistant cells, read-out: IC50 KBCBP20; for RF (resistance factor): ratio of IC50 values in cisplatin-resistant versus wild-type cell lines
Method: as §1

[3] = tested on: human cervical cancer cells (HeLa); test: In vitro anticancer activity (MTT) of [Re(CO)3(N—N)(H2O)][OTf] complexes in HeLa cells; type: cell-based; settings: concentration at which cell proliferation is inhibited by 50%, read-out: IC50 of Re—(H2O) Complex
Method: (§2) HeLa (cervical cancer) cell line was cultured using Dulbecco's Modified Eagle's Medium (DMEM) supplemented with 10% fetal bovine serum (FBS). A2780 (ovarian cancer) and A2780CP70 (cisplatin-resistant ovarian cancer) cell lines were cultured as monolayers with Roswell Park Memorial Institute (RPMI)-1640 culture media supplemented with 10% fetal bovine serum. All cell lines were grown in a humidified incubator at 37° C. with an atmosphere of 5% CO2. Cells were passed at 80-90% confluence, using trypsin/EDTA. Cells were tested monthly for mycoplasma contamination with the PlasmoTest™ mycoplasma detection kit from InvivoGen.
(§3) All compounds were dissolved in phosphate-buffered saline (PBS, pH 7.4) to prepare a 1-2 mM stock solution. For single dose studies, only HeLa cells were used. For both the single dose and full dose response, all cells were grown to 80-90% confluence, detached with trypsin/EDTA, seeded in 96-well plates at 2000 cells/well for HeLa cells and 4000 cells/well for A2780 and A2780CP70 cells in 100 μL of growth media, and incubated for 24 hours. The medium was removed and replaced with fresh medium (200 μL) containing a single concentration of a rhenium(I) complex or media. The cells were then incubated for 4 hours, and then the cells were dosed with 365 nm for 1 hour (one plate under the same dosing conditions was kept outside the incubator in the dark as a control). After exposure to light, the plates incubated for an additional 44 hours, the medium was removed from the wells, and (3(4,5-dimethylthiazol-2-yl)-2,5-tetrazolium bromide (MTT) in RPMI (200 μL, 1 mg/mL) was added. After 4 hours, the MTT/RPMI solution was removed, and the formazan crystals were dissolved in 200 μL of an 8:1 mixture of DMSO and pH 10 glycine buffer. The absorbance at 570 nm in each well was measured using a BioTek Synergy™ HT plate reader. Cell viability was determined by normalizing the absorbance of the treated wells to untreated wells. All compounds that had less than 50% cell viability were analyzed using a full dose response. The % viability data is an average of three independent experiments with six replicates per concentration. The same procedure was followed as above for the full dose response but instead, after 24 hours, varying concentrations of the desired compounds were added. Cell viability was again determined by normalizing the absorbance of the treated wells to untreated wells The concentration of the compound versus % viability was plotted to produce dose-response curves, which were analyzed using a logistic sigmoid function fit with MagicPlot Pro™ software. The reported IC50 values are the average of three independent experiments with six replicates per concentration level.
The in vitro anticancer activities of these complexes were tested in human cervical cancer cells (HeLa), and the results are provided below in Table 1. […] The Hill-Slope is a quantitative measure of the steepness of the dose-response curve.

[4] = tested on: HeLa (cervical cancer) cell line; test: MTT cell viability of phosphino-Re(I) complexes in HeLa cells, dark or 365 nm light; type: cell-based, human; settings: for Single Dose Cell Viability (%) Light / Single Dose Cell Viability (%) Dark: HeLa cells, single concentration; for Single Dose Cell Viability (%) Dark: kept in the dark
Method: as §2, §3

[5] = tested on: A2780 (ovarian cancer) cell line; test: MTT cell viability of phosphino-Re(I) complexes in A2780 cells, dark or 365 nm light; type: cell-based
Method: as §2, §3

[6] = tested on: A2780CP70 (cisplatin-resistant ovarian cancer) cell line; test: MTT cell viability of phosphino-Re(I) complexes in A2780CP70 cells, dark or 365 nm light; type: cell-based
Method: as §2, §3

[7] = Table 4, HeLa, 365 nm for 1 hour, read-out: IC50 Value (μM) HeLa (light)
[8] = Table 4, HeLa, dark, read-out: IC50 Value (μM) HeLa (dark)
[9] = Table 3, full dose response, 365 nm for 1 hour, read-out: IC50 Value (μM) Light
[10] = Table 3, full dose response, dark, read-out: IC50 Value (μM) Dark
[11] = A2780, 365 nm for 1 hour, read-out: IC50 Value (μM) A2780 (light)
[12] = A2780, dark, read-out: IC50 Value (μM) A2780 (dark)
[13] = A2780CP70, 365 nm for 1 hour, read-out: IC50 Value (μM) A2780CP70 (light)
[14] = A2780CP70, dark, read-out: IC50 Value (μM) A2780CP70 (dark)

Molecule | IC50 [3] [µM] | IC50 [4, 9] [µM] | IC50 [4, 10] [µM] | Single Dose Cell Viability (%) Light ([4]; 365 nm for 1 hour) [%] | Single Dose Cell Viability (%) Dark [4] [%] | further results
Cc1ccc2ccc3ccc(C)nc3c2n1.O.O=S(=O)([O-])C(F)(F)F.[C-]#[O+].[C-]#[O+].[C-]#[O+].[Re+] [2,9-dimethyl phen, [Re(CO)3(N—N)(H2O)][OTf]] | 0.97 ± 0.21 | – | – | – | – | IC50 [1]: 0.4 µM; IC50 [2]: 2 µM; RF (resistance factor) [2]: 5
N.N.[Cl][Pt][Cl] [cisplatin, reference compound] | 3 ± 1.2 | – | – | – | – | IC50 [1]: 0.8 µM; IC50 [2]: 50 µM; RF (resistance factor) [2]: 62.5
Re(CO)2(phen)(DAPTA)(H2O) [DAPTA-phen dicarb (3b)] | – | – | – | – | – | IC50 [4, 7]: > 200 µM; IC50 [4, 8]: > 200 µM
Re(CO)3(bpy)(DAPTA) [DAPTA-bpy (9)] | – | 14.9 ± 3.2 | > 200 | – | – | –
Re(CO)3(bpy)(PTA) [PTA-bpy (7)] | – | – | – | 90.5 ± 4.1 | 97.9 ± 3.7 | –
Re(CO)3(bpy)(THP) [THP-bpy (8)] | – | – | – | 73.1 ± 6.4 | 98.9 ± 1.6 | –
Re(CO)3(dmbpy)(DAPTA) [DAPTA-dmbpy (12)] | – | 60.3 ± 18.2 | > 200 | – | – | –
Re(CO)3(dmbpy)(PTA) [PTA-dmbpy (10)] | – | – | – | 82.5 ± 9.7 | 94.4 ± 4.9 | –
Re(CO)3(dmbpy)(THP) [THP-dmbpy (11)] | – | – | – | 30.7 ± 14.6 | 93.3 ± 6.0 | –
Re(CO)3(dmobpy)(DAPTA) [DAPTA-dmobpy (15)] | – | 26.4 ± 9.2 | > 200 | – | – | –
Re(CO)3(dmobpy)(PTA) [PTA-dmobpy (13)] | – | – | – | 96.0 ± 6.8 | 98.2 ± 3.2 | –
Re(CO)3(dmobpy)(THP) [THP-dmobpy (14)] | – | 68 ± 4.3 | 72.6 | 12.7 ± 5.8 | 57.5 ± 11.0 | –
Re(CO)3(dmphen)(DAPTA) [DAPTA-dmphen (6)] | – | 19.2 ± 2.9 | > 200 | – | – | –
Re(CO)3(dmphen)(PTA) [PTA-dmphen (4)] | – | – | – | 87.0 ± 8.0 | 90.0 ± 8.8 | –
Re(CO)3(dmphen)(THP) [THP-dmphen (5)] | – | 9.6 ± 4.2 | > 200 | 1.3 ± 1.1 | 61.8 ± 6.2 | –
Re(CO)3(phen)(DAPTA) [DAPTA-phen (3)] | – | 5.9 ± 1.4 | > 200 | – | – | IC50 [5, 11]: 2.2 ± 1.1 µM; IC50 [5, 12]: > 200 µM; IC50 [6, 13]: 3.2 ± 0.7 µM; IC50 [6, 14]: > 200 µM; IC50 ([4]; HeLa, 365 nm for 1 hour, w/ oxyhemoglobin, read-out: IC50 Value (μM) HeLa (light)): > 200 µM; IC50 ([4]; HeLa, dark, w/ oxyhemoglobin, read-out: IC50 Value (μM) HeLa (dark)): > 200 µM; IC50 [4, 7]: 5.9 ± 1.4 µM; IC50 [4, 8]: > 200 µM
Re(CO)3(phen)(PTA) [PTA-phen (1)] | – | > 200 | > 200 | 99.6 ± 0.7 | 99.4 ± 1.0 | IC50 [5, 11]: 53.1 ± 2.6 µM; IC50 [5, 12]: > 200 µM; IC50 [6, 13]: > 200 µM; IC50 [6, 14]: > 200 µM; IC50 [4, 7]: > 200 µM; IC50 [4, 8]: > 200 µM
Re(CO)3(phen)(THP) [THP-phen (2)] | – | 26.4 ± 9.2 | > 200 | 2.5 ± 1.8 | 91.8 ± 8.7 | IC50 [5, 11]: 4.6 ± 1.4 µM; IC50 [5, 12]: > 200 µM; IC50 [6, 13]: 29.9 ± 7.7 µM; IC50 [6, 14]: > 200 µM; IC50 [4, 7]: 26.4 ± 9.2 µM; IC50 [4, 8]: > 200 µM
[Re(CO)3(N—N)(H2O)][OTf] [4,4′-dimethoxy bpy] | 8.8 ± 2.4 | – | – | – | – | –
[Re(CO)3(N—N)(H2O)][OTf] [4,4′-dimethyl bpy] | 5.8 ± 3.4 | – | – | – | – | –
[Re(CO)3(N—N)(H2O)][OTf] [4,4′dimethylester bpy] | 210 ± 30 | – | – | – | – | –
[Re(CO)3(N—N)(H2O)][OTf] [4,7-diphenyl phen] | 15 ± 7 | – | – | – | – | –
[Re(CO)3(N—N)(H2O)][OTf] [bpy] | 15 ± 5 | – | – | – | – | –
[Re(CO)3(N—N)(H2O)][OTf] [phen] | 9.7 ± 5.8 | – | – | – | – | –
